According to ChEMBL document CHEMBL1152339, “Use of the in vivo hollow fiber assay in natural products anticancer drug discovery” (J Nat Prod, 2009):

Tests used:
Format in all cases: functional
[1] = test system: Col2; assay: Growth inhibition of human Col2 cells xenografted in NCr nu/nu mouse at 6.25 to 25 mg/kg, sc once daily administered from day 3 to 6 after implantation measured on day 7 by MTT-based hollow-fiber test; conditions: route subcutaneous
[2] = test system: LNCaP; assay: Growth inhibition of human LNCAP cells xenografted in NCr nu/nu mouse at 6.25 to 25 mg/kg, ip once daily administered from day 3 to 6 after implantation measured on day 7 by MTT-based hollow-fiber test; conditions: route intraperitoneal
[3] = test system: KB; assay: Growth inhibition of human KB cells xenografted in NCr nu/nu mouse at 6.25 to 25 mg/kg, sc once daily administered from day 3 to 6 after implantation measured on day 7 by MTT-based hollow-fiber test; conditions: route subcutaneous
[4] = test system: LNCaP; assay: Growth inhibition of human LNCAP cells xenografted in NCr nu/nu mouse at 6.25 to 25 mg/kg, sc once daily administered from day 3 to 6 after implantation measured on day 7 by MTT-based hollow-fiber test; conditions: route subcutaneous
[5] = test system: LNCaP; assay: Growth inhibition of human LNCAP cells xenografted in ip dosed NCr nu/nu mouse administered once daily from day 3 to 6 after implantation measured on day 7 by MTT-based hollow-fiber test
[6] = test system: KB; assay: Growth inhibition of human KB cells xenografted in NCr nu/nu mouse at 6.25 to 25 mg/kg, ip once daily administered from day 3 to 6 after implantation measured on day 7 by MTT-based hollow-fiber test; conditions: route intraperitoneal
[7] = test system: Col2; assay: Growth inhibition of human Col2 cells xenografted in ip dosed NCr nu/nu mouse administered once daily from day 3 to 6 after implantation measured on day 7 by MTT-based hollow-fiber test
[8] = test system: Col2; assay: Growth inhibition of human Col2 cells xenografted in NCr nu/nu mouse at 6.25 to 25 mg/kg, ip once daily administered from day 3 to 6 after implantation measured on day 7 by MTT-based hollow-fiber test; conditions: route intraperitoneal
[9] = test system: KB; assay: Growth inhibition of human KB cells xenografted in NCr nu/nu mouse at 3.75 to 30 mg/kg, sc once daily administered from day 3 to 6 after implantation measured on day 7 by MTT-based hollow-fiber test; conditions: route subcutaneous
[10] = test system: SW626; assay: Growth inhibition of human SW626 cells xenografted in NCr nu/nu mouse at 3.75 to 30 mg/kg, ip once daily administered from day 3 to 6 after implantation measured on day 7 by MTT-based hollow-fiber test; conditions: dose mg/kg 3-6; route intraperitoneal
[11] = test system: SW626; assay: Growth inhibition of human SW626 cells xenografted in NCr nu/nu mouse at 3.75 to 30 mg/kg, sc once daily administered from day 3 to 6 after implantation measured on day 7 by MTT-based hollow-fiber test; conditions: dose mg/kg 3-6; route subcutaneous
[12] = test system: KB; assay: Growth inhibition of human KB cells xenografted in NCr nu/nu mouse at 3.75 to 30 mg/kg, ip once daily administered from day 3 to 6 after implantation measured on day 7 by MTT-based hollow-fiber test; conditions: route intraperitoneal
[13] = test system: SW626; assay: Growth inhibition of human SW626 cells xenografted in ip dosed NCr nu/nu mouse administered once daily from day 3 to 6 after implantation measured on day 7 by MTT-based hollow-fiber test

CC(=O)O[C@H]1O[C@H]([C@@H]2c3cccc(O)c3C(=O)c3c(O)cc(C)cc32)[C@H](O)[C@@H](OC(=O)C=C(C)C)[C@H]1O [ALVARADOIN G]
growth inhibition (GI) [1]: 0%
growth inhibition (GI) [2]: 52%
growth inhibition (GI) [3]: 13%
growth inhibition (GI) [4]: 24%
ED50 [5]: 290 nM
growth inhibition (GI) [6]: 79%
ED50 [7]: 1300 nM
growth inhibition (GI) [8]: 84%

CC(=O)O[C@H]1C(=O)[C@@]2(C)[C@H]([C@H](OC(=O)c3ccccc3)[C@]3(O)C[C@H](OC(=O)[C@H](O)[C@@H](NC(=O)c4ccccc4)c4ccccc4)C(C)=C1C3(C)C)[C@]1(OC(C)=O)CO[C@@H]1C[C@@H]2O [PACLITAXEL]
growth inhibition (GI) [9]: 20%
growth inhibition (GI) [10]: 98%
growth inhibition (GI) [11]: 0%
growth inhibition (GI) [12]: 70%
ED50 [13]: 0.012 nM
